pEC50: −log10 of the molar value. Where a name gives a salt, the structure may show the parent alone.
These molecules were tested against T1, human 5-HT4(a) (Homo sapiens, UniProt Q13639) (assay: Evaluation of agonistic activity in CHO-K1 cells expressing human 5-HT4(a) (GeneBlAzer HTR4-CRE-bla CHO-K1, beta-lactamase reporter)). Settings: CHO-K1 cells stably expressing human 5-HT4(a).
T1 construct: host or cells: GeneBlAzer HTR4-CRE-bla CHO-K1 cells
Type: cell-based
Procedure, shortened: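 Agonism read as CRE-driven β-lactamase activity: emission ratio 465/535 nm (excitation 410 nm) after 2 h substrate loading. Preceded by 5 h compound treatment, 8 concentrations, 1% DMSO in the added solution, of overnight-plated reporter CHO-K1 cells; EC50 by non-linear regression.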

T1 sequence (Q13639 1-387 isoform Q13639-2): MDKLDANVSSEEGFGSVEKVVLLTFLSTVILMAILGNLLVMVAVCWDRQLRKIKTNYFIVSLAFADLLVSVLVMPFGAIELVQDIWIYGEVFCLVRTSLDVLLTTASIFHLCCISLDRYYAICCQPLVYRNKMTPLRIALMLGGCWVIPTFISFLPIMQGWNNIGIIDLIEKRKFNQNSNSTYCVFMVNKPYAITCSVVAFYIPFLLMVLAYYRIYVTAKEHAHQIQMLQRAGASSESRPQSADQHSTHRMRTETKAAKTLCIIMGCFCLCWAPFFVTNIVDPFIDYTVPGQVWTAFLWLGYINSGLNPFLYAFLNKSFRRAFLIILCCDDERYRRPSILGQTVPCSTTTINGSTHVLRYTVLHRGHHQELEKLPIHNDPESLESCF

SMILES | pEC50
CCCc1cc(N2CC[C@H](NC(=O)C(C)(C)O)C2)nc(Nc2cccc(C#N)c2)n1 [Example 153, (S)-N-{1-[2-(3-cyanophenylamino)-6-propylpyrimidin-4-yl]pyrrolidin-3-yl}-2-hydroxy-2-methylpropanamide] | 9.64
CCCc1cc(N2CC[C@H](NC(=O)CCc3ccc(O)cc3)C2)nc(Nc2cccc(C#N)c2)n1 [Example 155, (S)-N-{1-[2-(3-cyanophenylamino)-6-propylpyrimidin-4-yl]pyrrolidin-3-yl}-3-(4-hydroxyphenyl)propanamide] | 9.38
CCCc1cc(N2CC[C@H](NC(=O)CCC(C)=O)C2)nc(Nc2cccc(C#N)c2)n1 [Example 156, (S)-N-{1-[2-(3-cyanophenylamino)-6-propylpyrimidin-4-yl]pyrrolidin-3-yl}-4-oxopentanamide] | 9.66
CCCc1cc(N2CC[C@H](NC(=O)CO)C2)nc(Nc2cccc(C#N)c2)n1 [Example 157, (S)-N-{1-[2-(3-cyanophenylamino)-6-propylpyrimidin-4-yl]pyrrolidin-3-yl}-2-hydroxyacetamide] | 10.36
CCCc1cc(N2CC[C@H](NC(=O)COCc3ccccc3)C2)nc(Nc2cccc(C#N)c2)n1 [Example 158] | 9.36
CCCc1cc(N2CC[C@H](NC(=O)CN(C)C)C2)nc(Nc2cccc(C#N)c2)n1 [Example 160] | 9.92
CCCc1cc(N2CC[C@H](NC(=O)CCN(C)C)C2)nc(Nc2cccc(C#N)c2)n1 [Example 161] | 9.92
CCCc1cc(N2CC[C@H](NC(=O)CCCN(C)C)C2)nc(Nc2cccc(C#N)c2)n1 [Example 162] | 9.71
CCCc1cc(N2CC[C@H](NC(=O)CNC(=O)OCc3ccccc3)C2)nc(Nc2cccc(C#N)c2)n1 [Example 165, (S)-benzyl 2-{1-[2-(3-cyanophenylamino)-6-propylpyrimidin-4-yl]pyrrolidin-3-ylamino}-2-oxoethylcarbamate] | 9.70
CCCc1cc(N2CC[C@H](NC(=O)CCCNC(=O)OC(C)(C)C)C2)nc(Nc2cccc(C#N)c2)n1 [Example 166] | 9.99
CCCc1cc(N2CC[C@H](NC)C2)nc(Nc2ccc(C)c(C#N)c2)n1 [Example 170] | 11.89
CCCc1cc(N2CCC(NCC)C2)nc(Nc2ccc(C)c(C#N)c2)n1 (centres unmarked) [Example 173] | 11.40
CCCc1cc(N2CC[C@H](NC)C2)nc(Nc2ccc(N)c([N+](=O)[O-])c2)n1 [Example 175] | 9.64
CCCc1cc(N2CC[C@H](NCC)C2)nc(Nc2ccc(N)c([N+](=O)[O-])c2)n1 [Example 176] | 10.74
CCCc1cc(N2CC[C@H](NCC)C2)nc(Nc2ccc(N)c([N+](=O)[O-])c2)n1 [Example 177] | 10.70
CCCc1cc(N2CC[C@H](NC)C2)nc(Nc2ccc(F)c(C#N)c2)n1 [Example 180] | 11.06
CCCc1cc(N2CCC(N)C2)nc(Nc2ccc(F)c(C#N)c2)n1 (centres unmarked) [Example 182] | 10.44
CCCc1cc(N2CCC[C@H]2CO)nc(Nc2ccc3cc[nH]c3c2)n1 [Example 185] | 10.82
CCCc1cc(N2CCC[C@@H]2CO)nc(Nc2ccc3cc[nH]c3c2)n1 [Example 186] | 9.42
CCCc1cc(N2CCCC2CO)nc(Nc2ccc3cc[nH]c3c2)n1 (centres unmarked) [Example 187] | 10.43
CCCc1cc(N2CCC[C@H]2COC)nc(Nc2ccc3cc[nH]c3c2)n1 [Example 189] | 10.55

SMILES | pEC50
CCCc1cc(N2CCCC2C)nc(Nc2ccc3cc[nH]c3c2)n1 (centres unmarked) [Example 190] | 10.30
CCCc1cc(N2CCC[C@H]2C(=O)OC)nc(Nc2ccc3cc[nH]c3c2)n1 [Example 191] | 9.54
CCCc1cc(N2CCC(NC(C)=O)C2)nc(Nc2ccc3cc[nH]c3c2)n1 (centres unmarked) [Example 192] | 10.70
CCCc1cc(N2CCC[C@H]2CO)nc(Nc2cccc(C#N)c2)n1 [Example 194, (S)-3-{4-[2-(hydroxymethyl)pyrrolidin-1-yl]-6-propylpyrimidin-2-ylamino}benzonitrile] | 9.70
CCCc1cc(N2CCC[C@H]2CO)nc(Nc2cccc(SC)c2)n1 [Example 195] | 9.60
CCCc1cc(N2CCC[C@H]2CO)nc(Nc2ccc(Cl)c([N+](=O)[O-])c2)n1 [Example 196, (S)-{1-[2-(4-chloro-3-nitrophenylamino)-6-propylpyrimidin-4-yl]pyrrolidin-2-yl}methanol] | 10.00
CCCc1cc(N2CCC[C@H]2CO)nc(Nc2cccc(C(F)(F)F)c2)n1 [Example 203] | 9.52
CCCc1cc(N2CCC[C@H]2CO)nc(Nc2cc(Cl)ccc2C)n1 [Example 204] | 9.33
CCCc1cc(N2CCC[C@H]2CO)nc(Nc2ccc(C)c(Cl)c2)n1 [Example 206] | 9.80
CCCc1cc(N2CCC[C@H]2CO)nc(Nc2cccc([N+](=O)[O-])c2)n1 [Example 207] | 10.08
CCCc1cc(N2CCC[C@H]2CO)nc(Nc2ccc(F)c([N+](=O)[O-])c2)n1 [Example 208, (S)-{1-[2-(4-fluoro-3-nitrophenylamino)-6-propylpyrimidin-4-yl]pyrrolidin-2-yl}methanol] | 10.22
CCCc1cc(N2CCC[C@H]2CO)nc(Nc2ccc(C)c([N+](=O)[O-])c2)n1 [Example 210, (S)-{1-[2-(4-methyl-3-nitrophenylamino)-6-propylpyrimidin-4-yl]pyrrolidin-2-yl}methanol] | 10.80
CCCc1cc(N2CCC[C@H]2CO)nc(Nc2ccc(N)c(C(F)(F)F)c2)n1 [Example 211] | 10.72
CCCc1cc(N2CCC[C@H]2CO)nc(Nc2ccc(N)c([N+](=O)[O-])c2)n1 [Example 212, (S)-{1-[2-(4-amino-3-nitrophenylamino)-6-propylpyrimidin-4-yl]pyrrolidin-2-yl}methanol] | 11.05
CCCc1cc(N2CCC[C@H]2CO)nc(Nc2ccc(C)c(C#N)c2)n1 [Example 213] | 10.77
CCCc1cc(N2CCC[C@H]2CO)nc(Nc2ccc(F)c(C#N)c2)n1 [Example 214, (S)-2-fluoro-5-{4-[2-(hydroxymethyl)pyrrolidin-1-yl]-6-propylpyrimidin-2-ylamino}benzonitrile] | 10.54
CCCc1cc(N2CCC[C@H]2CO)nc(Nc2ccc(N)c(C#N)c2)n1 [Example 215] | 10.74
CCCc1cc(N2CC[C@H](NCCN)C2)nc(Nc2cccc(C#N)c2)n1 [Example 220] | 10.15
CCCc1cc(N2CC[C@H](NC3CCNCC3)C2)nc(Nc2cccc(C#N)c2)n1 [Example 221, (S)-3-{4-[3-(piperidin-4-ylamino)pyrrolidin-1-yl]-6-propylpyrimidin-2-ylamino}benzonitrile] | 9.83
CCCCN1CCC(N[C@H]2CCN(c3cc(CCC)nc(Nc4cccc(C#N)c4)n3)C2)CC1 [Example 222] | 10.09
CCCCc1cc(N2CC[C@H](NC(C)=O)C2)nc(Nc2cccc(C#N)c2)n1 [Example 223] | 10.96

SMILES | pEC50
CCCCc1cc(N2CCC[C@H]2CO)nc(Nc2cccc(C#N)c2)n1 [Example 224] | 11.37
CCCCc1cc(N2CCC[C@H]2C)nc(Nc2cccc(C#N)c2)n1 [Example 225] | 10.28
CCCCc1cc(N2CC[C@H](NC)C2)nc(Nc2cccc(C#N)c2)n1 [Example 226] | 10.28
CCCCc1cc(N2CC[C@H](NC(C)=O)C2)nc(Nc2ccc(C)c(C#N)c2)n1 [Example 228, (S)—N-{1-[6-butyl-2-(3-cyano-4-methylphenylamino)pyrimidin-4-yl]pyrrolidin-3-yl}acetamide] | 10.85
CCCCc1cc(N2CCC[C@H]2C)nc(Nc2ccc(C)c(C#N)c2)n1 [Example 230] | 10.33
CCCCc1cc(N2CC[C@H](NC)C2)nc(Nc2ccc(C)c(C#N)c2)n1 [Example 231] | 11.17
CCCCc1cc(N2CC[C@H](NC(=O)OC(C)(C)C)C2)nc(Nc2ccc(C)c(C#N)c2)n1 [Example 232, (S)-tert-butyl 1-[6-butyl-2-(3-cyano-4-methylphenylamino)pyrimidin-4-yl]pyrrolidin-3-ylcarbamate] | 9.89
CCCCc1cc(N2CC[C@H](N)C2)nc(Nc2cccc(C#N)c2)n1 [Example 233, (S)-3-[4-(3-aminopyrrolidin-1-yl)-6-butylpyrimidin-2-ylamino]benzonitrile dihydrochloride] | 10.72
CCCCc1cc(N2CC[C@H](N)C2)nc(Nc2ccc(C)c(C#N)c2)n1 [Example 234, (S)-5-[4-(3-aminopyrrolidin-1-yl)-6-butylpyrimidin-2-ylamino]-2-methylbenzonitrile dihydrochloride] | 11.92
CCCCc1cc(N2CC[C@H](NC(C)C)C2)nc(Nc2cccc(C#N)c2)n1 [Example 235] | 11.64
CCCCc1cc(N2CC[C@H](N(CC)CC)C2)nc(Nc2cccc(C#N)c2)n1 [Example 236] | 9.68
CCCCc1cc(N2CC[C@H](NCC3CC3)C2)nc(Nc2cccc(C#N)c2)n1 [Example 237] | 11.89
CCCCc1cc(N2CC[C@H](N(CC)CC)C2)nc(Nc2ccc(C)c(C#N)c2)n1 [Example 239] | 9.94
CCCCc1cc(N2CC[C@H](NCC3CC3)C2)nc(Nc2ccc(C)c(C#N)c2)n1 [Example 240] | 11.60
CCCc1cc(N2CC[C@H](NC(C)=O)C2)nc(Nc2ccc(Cl)c([N+](=O)[O-])c2)n1 [Example 241, (S)—N-{1-[2-(4-chloro-3-nitrophenylamino)-6-propylpyrimidin-4-yl]pyrrolidin-3-yl}acetamide] | 10.92
CCCc1cc(N2CC[C@H](NC(C)=O)C2)nc(Nc2cccc(SC)c2)n1 [Example 242] | 10.24
CCCc1cc(N2CC[C@H](NC(C)=O)C2)nc(Nc2ccc3cc[nH]c3c2)n1 [Example 243] | 10.96
CCCc1cc(N2CC[C@H](NC(C)=O)C2)nc(Nc2cccc(C(F)(F)F)c2)n1 [Example 244] | 10.55
CCCc1cc(N2CC[C@H](NC(C)=O)C2)nc(Nc2ccc3c(C)cc(=O)oc3c2)n1 [Example 245] | 10.28
CCCc1cc(N2CC[C@H](NC(C)=O)C2)nc(Nc2ccc(C)c(Cl)c2)n1 [Example 246] | 10.40

Source: patent publication US9890138B2, “Diaminopyrimidine derivatives and processes for the preparation thereof” (YUHAN CORPORATION, priority 2011, dated 2018)
